Data as given in patent US12534704B2, “Organ extracellular matrix-derived scaffold for culture and transplantation of organoid and method of preparing the same” (CELLARTGEN INC., priority 2020, dated 2026).

Experiments:
Type in all cases: cell-based
human lung organoid = assay: Lung fibrosis model with human lung organoid
Method: Specifically, human lung organoids cultured in respective scaffolds were treated with TGF-β for 3 days and then analyzed.

[1] = test system: mouse cholangiocyte-derived liver organoids (CLOs); assay: Liver fibrosis model with mouse CLO
Method: For disease modeling using an LEM-based liver organoid, TGF-beta was screened at each concentration and the possibility of inducing liver fibrosis was checked. A model was induced using mouse cholangiocyte-derived liver organoids (CLOs) cultured for 7 days. To construct a liver fibrosis model, the organoids were treated with TGF-β at each concentration for 48 hours and observed.

mouse lung organoid = assay: Lung fibrosis model with mouse lung organoid
Method: Specifically, lung organoids were treated for 3 days at respective concentrations on day 4 of culture and analyzed on day 7. A lung organoid that was not treated with TGF-β (NT, No treatment) was used as a control group.

[2] = test system: human cholangiocyte-derived liver organoids (hCLOs); assay: Liver fibrosis model with hCLO; conditions: hCLO in LEM, 3 days
Method: Meanwhile, for disease modeling using human cholangiocyte-derived liver organoids (hCLOs) cultured in the LEM, TGF-β was tested at each concentration and the organoids were treated with the most appropriate concentration of TGF-β (80 ng/ml). Then, the possibility of inducing liver fibrosis was checked.
To verify a liver fibrosis model, SMA (Smooth Muscle Actin) was used for staining to determine the accumulated extracellular matrix (ECM) around the organoids. Through this experiment, it was verified that a human liver fibrosis model can be constructed using a liver organoid cultured in the LEM scaffold (FIG. 79B).

## TGF-β
Human lung organoid; 3 days after treatment
  SMA, COL1 and VIM expression (immunostaining): increased
Human lung organoid; 3 days, quantitative PCR
  ACTA2, COL1A2 and TNF-α expression: significantly increased
[1]; 4 ng/ml TGF-β, qPCR
  expression of liver fibrosis markers: highest
[1]; TGF-β each concentration, 48 hours
  liver organoid morphology and growth: changed in morphology and did not grow well
[1]; organoids cultured in LEM
  cholangiocyte marker expression: significantly decreased
  fibrosis marker expression: greatly increased
Mouse lung organoid
  SMA and Col1 expression (immunostaining): increase as the TGF-β treatment concentration increases
Mouse lung organoid; 40 ng/ml
  Col1a2 expression: increased statistically significantly
Mouse lung organoid; TGF-β each concentration, 3 days
  lung organoid shape and growth: changed in shape and did not grow well
[2]
  liver organoid morphology and growth: deformed in morphology and did not grow well
